Results taken from patent US8664276B2, “Stilbene analogs and methods of treating cancer” (University of Kentucky Research Foundation, priority 2011, dated 2014).

Columns and labels:
MAT2B = target: T1, MAT2B (Homo sapiens, UniProt Q9NZL9); assay: Streptavidin bead pull-down binding assay, GST-MAT2B; settings: recombinant protein from E. coli
T1 construct: made in house; host or cells: E. coli BL21
T1 sequence (Q9NZL9 1-334): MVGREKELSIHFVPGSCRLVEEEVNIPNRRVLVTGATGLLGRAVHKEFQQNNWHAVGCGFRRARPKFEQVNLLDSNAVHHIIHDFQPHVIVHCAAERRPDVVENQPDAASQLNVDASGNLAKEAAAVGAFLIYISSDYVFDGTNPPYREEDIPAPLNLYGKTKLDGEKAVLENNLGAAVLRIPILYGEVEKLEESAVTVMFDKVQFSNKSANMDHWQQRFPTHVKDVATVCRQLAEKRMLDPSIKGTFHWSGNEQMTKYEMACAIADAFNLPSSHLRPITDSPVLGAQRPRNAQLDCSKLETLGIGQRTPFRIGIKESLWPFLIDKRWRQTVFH
Description: (§1) MAT2A and MAT2B were cloned into pGEX6p3 vector. The constructs were transfected into E. coli BL21. The GST-fusion proteins were induced by IPTG and purified by glutathione beads as described previously (See Liu, beta-Trcp couples beta-catenin phosphorylation-degradation and regulates Xenopus axis formation. Proc Natl Acad Sci USA 1999, 96, 6273-8). For the binding assay, purified proteins were incubated with streptavidin beads and biotinylated FlDAS 13 described above. Eluted proteins were analyzed by western blot with antibodies against GST, MAT2A or MAT2B.
(§2) Since MAT2A and MAT2B bind each other and form a complex, to determine which subunit directly interacts with FIDAS reagents, recombinant MAT2A and MAT2B were purified and tested for interaction with FIDAS. Briefly, GST-MAT2A and GST-MAT2B fusion proteins were expressed and purified from E. coli. These proteins were incubated with streptavidin beads with or without biotinylated derivative 13 (FIG. 9A). The binding proteins were eluted by 2.5 mM D-biotin and analyzed by Western blot with an anti-GST-Ab.

MAT2A = MAT2A (Homo sapiens, UniProt P31153); assay: Streptavidin bead pull-down binding assay, GST-MAT2A; parameters: GST (N); made in house; settings: recombinant protein from E. coli
MAT2A, sequence (P31153 whole entry): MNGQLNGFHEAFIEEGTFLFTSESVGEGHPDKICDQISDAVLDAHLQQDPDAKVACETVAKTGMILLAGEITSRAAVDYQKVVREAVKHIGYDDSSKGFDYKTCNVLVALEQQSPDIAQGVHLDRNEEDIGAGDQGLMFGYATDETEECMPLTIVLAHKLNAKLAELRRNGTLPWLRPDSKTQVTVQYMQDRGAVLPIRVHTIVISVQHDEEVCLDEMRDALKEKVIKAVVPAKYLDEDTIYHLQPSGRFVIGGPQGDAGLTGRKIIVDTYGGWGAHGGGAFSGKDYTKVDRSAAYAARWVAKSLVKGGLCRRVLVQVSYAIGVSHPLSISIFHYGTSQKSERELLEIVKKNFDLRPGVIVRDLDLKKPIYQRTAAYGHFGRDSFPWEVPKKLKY
Description: as §1, §2

MAT2A-K265L = target: T2, MAT2A-K265L (Homo sapiens, UniProt P31153, K265L); assay: In vitro binding assay, mutant MAT2A (K265L); settings: lysine 265 mutated to leucine
T2 construct: made in house
T2 sequence (P31153 whole entry K265L): as the sequence (P31153 whole entry) above, with K265L counted along it
Excerpt: To test if the halogenated stilbene analogs of the present disclosure also bind MAT1A, a His-tagged MAT1A was cloned in and purified from E. coli. […] According to published MAT structures, several key residues are involved in substrate binding and catalysis. Among these key residues, lysine 265 is conserved between MAT1A and MAT2A and among different species. […] Taken together, the FlDAS reagents are specific inhibitors of MAT2A, and are promising drug candidates for multiple cancers as well as metabolic diseases.

Structure (SMILES): CN(CC(=O)NCCOCCOCCNC(=O)CCCCC1SCC2NC(=O)NC21)c1ccc(C=Cc2c(F)cccc2F)cc1 (stereo not drawn) [compound 13, N-(2-(4-(2,6-Difluorostyryl)phenyl)-4-oxo-8,11-dioxa-2,5-diazamidecan-13-yl)-5-(2-oxohexahydro-1H-thieno[3,4-d]imidazol-4-yl)pentanamide]
- binding to MAT2B (MAT2B): indirectly through MAT2A
- binding to MAT2A (MAT2A): directly binds
- binding to mutant MAT2A (K265L) (MAT2A-K265L): significantly decreased
